From patent US8834841B2, “Imaging agents” (priority 2005, dated 2014)

Tests used:
[1] = tested on: U87 Glioma Tumor Cells Implanted SC in SCID Mice; assay: tissue distribution, U87 tumor-bearing SCID mice; type: in vivo
Method: (§1) For the in vitro amino acid uptake studies, all cells can be grown to monolayer confluency in T-175 culture flasks [Corning, Corning, N.Y.] (approx. 1×10^8 cells/flask) in Dulbecco's Modified Eagle's Medium (DMEM) [Sigma, St. Louis, Mo.] in a humidified incubator (37° C., 5% CO2/95% air). Media are supplemented with 10% fetal calf serum [Hyclone, Logan, Utah], and antibiotics (10,000 U/ml penicillin and 10 mg/ml streptomycin) (Sigma, St. Louis, Mo.). For tissue culture passage, monolayer cells are detached by gentle trypsinization, resuspended in complete media, and split 1:10 into new T-flasks. Cultures are passaged weekly, and fed fresh media every 2 to 3 days. To initiate tumor growth in SCID mice, 1×10^6 cells are injected s.c. bilaterally into the flanks (inguinal region) of the recipient animals using a 1 ml syringe with a 27 gauge needle. Ex vivo experiments can be performed with animals containing tumors weighing between 500 mg and 1 g, as estimated by caliper measurement (tumor weight=(π/6)*abc, where a, b and c are the tumor length, width and height, respectively). The compounds of the invention are further evaluated for their tumor specificity and selectivity in tumor-bearing animal models. One can evaluate and compare the transport, accumulation and tissue distribution of each compound in these in vivo animal studies. Tissue distribution of the compounds is measured in SCID mice (average weight, 20-25 g) bearing human tumors as follows. The candidate radioligands (20 uCi in 0.4 ml 0.9% NaCl) are injected into the tail vein of tumor-bearing mice. […] Tissues (blood, heart, liver, lungs, kidneys, bone, thyroid, muscle, brain and tumor) are excised, rinsed in saline, and blotted dry. The tissues are weighed, placed into 12×75 mm glass vials, the radioactivity determined with a gamma counter, and the percent dose/gram calculated. Total activities of blood and muscle are calculated by assuming that they account for 7% and 40% of the total body mass, respectively.

[2] = tested on: MB468 Breast Tumor Cells Implanted SC in SCID Mice; assay: tissue distribution, MB468 tumor-bearing SCID mice; type: in vivo
Method: as §1

% Dose/g blood ([1]; 15 Minutes): 3.50 % Dose/g
% Dose/g bone ([1]; 15 Minutes): 2.10 % Dose/g
% Dose/g brain ([1]; 15 Minutes): 0.28 % Dose/g
% Dose/g heart ([1]; 15 Minutes): 2.59 % Dose/g
% Dose/g kidney ([1]; 15 Minutes): 9.21 % Dose/g
% Dose/g liver ([1]; 15 Minutes): 3.43 % Dose/g
% Dose/g lung ([1]; 15 Minutes): 4.08 % Dose/g
% Dose/g muscle ([1]; 15 Minutes): 1.45 % Dose/g
% Dose/g pancreas ([1]; 15 Minutes): 49.78 % Dose/g
% Dose/g spleen ([1]; 15 Minutes): 6.63 % Dose/g
% Dose/g tumor ([1]; 15 Minutes): 6.48 % Dose/g
% Dose/g blood ([1]; 30 Minutes): 2.17 % Dose/g
% Dose/g bone ([1]; 30 Minutes): 1.66 % Dose/g
% Dose/g brain ([1]; 30 Minutes): 0.22 % Dose/g
% Dose/g heart ([1]; 30 Minutes): 2.00 % Dose/g
% Dose/g kidney ([1]; 30 Minutes): 5.08 % Dose/g
% Dose/g liver ([1]; 30 Minutes): 2.58 % Dose/g
% Dose/g lung ([1]; 30 Minutes): 2.82 % Dose/g
% Dose/g muscle ([1]; 30 Minutes): 1.12 % Dose/g
% Dose/g pancreas ([1]; 30 Minutes): 41.30 % Dose/g
% Dose/g spleen ([1]; 30 Minutes): 5.11 % Dose/g
% Dose/g tumor ([1]; 30 Minutes): 5.44 % Dose/g
% Dose/g blood ([1]; 60 Minutes): 0.81 % Dose/g
% Dose/g bone ([1]; 60 Minutes): 1.21 % Dose/g
% Dose/g brain ([1]; 60 Minutes): 0.17 % Dose/g
% Dose/g heart ([1]; 60 Minutes): 1.13 % Dose/g
% Dose/g kidney ([1]; 60 Minutes): 2.00 % Dose/g
% Dose/g liver ([1]; 60 Minutes): 1.22 % Dose/g
% Dose/g lung ([1]; 60 Minutes): 1.15 % Dose/g
% Dose/g muscle ([1]; 60 Minutes): 1.10 % Dose/g
% Dose/g pancreas ([1]; 60 Minutes): 17.78 % Dose/g
% Dose/g spleen ([1]; 60 Minutes): 3.02 % Dose/g
% Dose/g tumor ([1]; 60 Minutes): 3.61 % Dose/g
% Dose/g blood ([1]; 120 Minutes): 0.46 % Dose/g
% Dose/g bone ([1]; 120 Minutes): 1.20 % Dose/g
% Dose/g brain ([1]; 120 Minutes): 0.16 % Dose/g
% Dose/g heart ([1]; 120 Minutes): 0.89 % Dose/g
% Dose/g kidney ([1]; 120 Minutes): 1.10 % Dose/g
% Dose/g liver ([1]; 120 Minutes): 0.75 % Dose/g
% Dose/g lung ([1]; 120 Minutes): 0.64 % Dose/g
% Dose/g muscle ([1]; 120 Minutes): 0.99 % Dose/g
% Dose/g pancreas ([1]; 120 Minutes): 10.20 % Dose/g
% Dose/g spleen ([1]; 120 Minutes): 1.48 % Dose/g
% Dose/g tumor ([1]; 120 Minutes): 2.73 % Dose/g
% Dose/g blood ([2]; 15 Minutes): 3.26 % Dose/g
% Dose/g bone ([2]; 15 Minutes): 1.46 % Dose/g
% Dose/g brain ([2]; 15 Minutes): 0.23 % Dose/g
% Dose/g heart ([2]; 15 Minutes): 2.21 % Dose/g
% Dose/g kidney ([2]; 15 Minutes): 8.62 % Dose/g
% Dose/g liver ([2]; 15 Minutes): 2.51 % Dose/g
% Dose/g lung ([2]; 15 Minutes): 4.02 % Dose/g
% Dose/g muscle ([2]; 15 Minutes): 1.29 % Dose/g
% Dose/g pancreas ([2]; 15 Minutes): 36.85 % Dose/g
% Dose/g spleen ([2]; 15 Minutes): 4.47 % Dose/g
% Dose/g tumor ([2]; 15 Minutes): 2.71 % Dose/g
% Dose/g blood ([2]; 30 Minutes): 2.39 % Dose/g
% Dose/g bone ([2]; 30 Minutes): 1.31 % Dose/g
% Dose/g brain ([2]; 30 Minutes): 0.20 % Dose/g
% Dose/g heart ([2]; 30 Minutes): 1.89 % Dose/g
% Dose/g kidney ([2]; 30 Minutes): 6.49 % Dose/g
% Dose/g liver ([2]; 30 Minutes): 2.49 % Dose/g
% Dose/g lung ([2]; 30 Minutes): 2.98 % Dose/g
% Dose/g muscle ([2]; 30 Minutes): 1.12 % Dose/g
% Dose/g pancreas ([2]; 30 Minutes): 35.25 % Dose/g
% Dose/g spleen ([2]; 30 Minutes): 4.11 % Dose/g
% Dose/g tumor ([2]; 30 Minutes): 2.83 % Dose/g
% Dose/g blood ([2]; 60 Minutes): 1.00 % Dose/g
% Dose/g bone ([2]; 60 Minutes): 0.92 % Dose/g
% Dose/g brain ([2]; 60 Minutes): 0.15 % Dose/g
% Dose/g heart ([2]; 60 Minutes): 1.27 % Dose/g
% Dose/g kidney ([2]; 60 Minutes): 2.41 % Dose/g
% Dose/g liver ([2]; 60 Minutes): 1.29 % Dose/g
% Dose/g lung ([2]; 60 Minutes): 1.37 % Dose/g
% Dose/g muscle ([2]; 60 Minutes): 1.07 % Dose/g
% Dose/g pancreas ([2]; 60 Minutes): 19.20 % Dose/g
% Dose/g spleen ([2]; 60 Minutes): 3.05 % Dose/g
% Dose/g tumor ([2]; 60 Minutes): 2.19 % Dose/g
% Dose/g blood ([2]; 120 Minutes): 0.35 % Dose/g
% Dose/g bone ([2]; 120 Minutes): 0.71 % Dose/g
% Dose/g brain ([2]; 120 Minutes): 0.13 % Dose/g
% Dose/g heart ([2]; 120 Minutes): 0.69 % Dose/g
% Dose/g kidney ([2]; 120 Minutes): 0.89 % Dose/g
% Dose/g liver ([2]; 120 Minutes): 0.56 % Dose/g
% Dose/g lung ([2]; 120 Minutes): 0.51 % Dose/g
% Dose/g muscle ([2]; 120 Minutes): 0.66 % Dose/g
% Dose/g pancreas ([2]; 120 Minutes): 7.96 % Dose/g
% Dose/g spleen ([2]; 120 Minutes): 1.01 % Dose/g
% Dose/g tumor ([2]; 120 Minutes): 1.44 % Dose/g
Compound: NC1(C(=O)O)CCC1[18F] [Anti-R,S 2-[^18F]FACBC, (R,S) anti-1-amino-2-[^18F]fluorocyclobutyl-1-carboxylic acid]
